Literature values in patent US20140037729A1, “COMBINATION OF AN OPIOID AGONIST AND AN OPIOID ANTAGONIST IN THE TREATMENT OF PARKINSON'S DISEASE” (Euro-Celtique, S.A., priority 2010, published 2014).

What was measured:
parkinsonian patients = settings: at higher doses; Berg et al. 1999
[1] = reported
parkinsonian monkeys = settings: in the long term; Samadi et al. 2005

Q: With `CN1CC[C@]23c4c5ccc(O)c4O[C@H]2[C@@H](O)C=C[C@H]3[C@H]1C5` [morphine] as the compound, how does the akinesia (parkinsonian patients) read?
A: The akinesia was “increase in akinesia”.

Q: Which oral bioavailability [1] does the source give for `C=CCN1CC[C@]23c4c5ccc(O)c4O[C@H]2C(=O)CC[C@@]3(O)[C@H]1C5` [Naloxone, naloxone] here?
A: Its oral bioavailability is at most 2%.

Q: With `O=C1CC[C@@]2(O)[C@H]3Cc4ccc(O)c5c4[C@@]2(CCN3CC2CC2)[C@H]1O5` [naltrexone] as the compound, how does the dyskinesias (parkinsonian monkeys) read?
A: Its dyskinesias is “increases dyskinesias”.
